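Protocol summary: plate cells (96-well), add compound at 5 concentrations, incubate 48 h, interpolate endpoints linearly. The concentration for 50% growth inhibition is given as GI50.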 The source made the active and inactive calls. Cut-off read from the data, not from the text of the source: active = GI50 up to about 1.1 µM and inactive = higher.
What was measured:
Test in all cases: NCI anticancer screen, dose series, 48 h
NCI-H522 = test system: NCI-H522
UACC-62 = test system: UACC-62
NCI-H23 = test system: NCI-H23
SF-539 = test system: SF-539
LXFL 529 = test system: LXFL 529
EKVX = test system: EKVX
SNB-19 = test system: SNB-19
OVCAR-4 = test system: OVCAR-4
SK-MEL-28 = test system: SK-MEL-28
Malme-3M = test system: Malme-3M
NCI-H460 = test system: NCI-H460
HOP-92 = test system: HOP-92
UACC-257 = test system: UACC-257
MDA-MB-231 = test system: MDA-MB-231
MCF7 = test system: MCF7
HCT-15 = test system: HCT-15
RXF 393 = test system: RXF 393
A498 = test system: A498
MDA-MB-435 = test system: MDA-MB-435
BT-549 = test system: BT-549

SMILES	GI50 (NCI-H522)	GI50 (UACC-62)	GI50 (NCI-H23)	GI50 (SF-539)	GI50 (LXFL 529)	GI50 (EKVX)	GI50 (SNB-19)	GI50 (OVCAR-4)	GI50 (SK-MEL-28)	GI50 (Malme-3M)	GI50 (NCI-H460)	GI50 (HOP-92)	GI50 (UACC-257)	GI50 (MDA-MB-231)	GI50 (MCF7)	GI50 (HCT-15) [µM]	GI50 (RXF 393)	GI50 (A498)	GI50 (MDA-MB-435)	GI50 (BT-549)
COc1ccc2nc(-c3ccccn3)cc(O)c2c1	20.4 µM (inactive)	32.8 µM (inactive)	41.9 µM (inactive)	30 µM (inactive)	41.5 µM (inactive)	55.3 µM (inactive)	> 100 µM (inactive)	72.3 µM (inactive)	35.5 µM (inactive)	24 µM (inactive)	34.7 µM (inactive)	43.9 µM (inactive)	50.7 µM (inactive)	–	–	–	–	–	–	–
CC(C)C(C)/C=C\C(C)C1CCC2C3=CC=C4CC(O)CCC4(C)C3CCC21C (centres undefined)	38.6 µM (inactive)	> 44.6 µM (inactive)	> 76.7 µM (inactive)	> 44.6 µM (inactive)	–	> 39.4 µM (inactive)	> 74.5 µM (inactive)	> 100 µM (inactive)	> 41.7 µM (inactive)	> 34.7 µM (inactive)	> 36.1 µM (inactive)	5.75 µM (inactive)	> 76.9 µM (inactive)	> 40.6 µM (inactive)	30.2 µM (inactive)	> 42.8	> 42.5 µM (inactive)	> 85.5 µM (inactive)	41.1 µM (inactive)	> 50.4 µM (inactive)
CCNC(=S)/N=c1\sc(NCC)nc2sc3c(c12)CCN(N1CCc2c(sc4nc(NCC)s/c(=N\C(=S)NCC)c24)C1)C3	65.6 µM (inactive)	> 100 µM (inactive)	> 100 µM (inactive)	15.5 µM (inactive)	–	> 100 µM (inactive)	74 µM (inactive)	86.1 µM (inactive)	92 µM (inactive)	> 100 µM (inactive)	76.6 µM (inactive)	5.31 µM (inactive)	> 100 µM (inactive)	29.5 µM (inactive)	> 100 µM (inactive)	> 100	8.93 µM (inactive)	54 µM (inactive)	97.5 µM (inactive)	> 100 µM (inactive)
COc1cc([C@@H]2c3cc4c(cc3[C@@H](Nc3ccc(/N=C\c5ccc(C(=O)O[C@@H](C(=O)O[C@H]6C[C@@]7(O)[C@@H](OC(=O)c8ccccc8)[C@@H]8[C@]9(OC(C)=O)CO[C@@H]9C[C@H](O)[C@@]8(C)C(=O)[C@H](OC(C)=O)C(=C6C)C7(C)C)[C@@H](NC(=O)c6ccccc6)c6ccccc6)cc5)cc3)[C@H]3COC(=O)[C@H]23)OCO4)cc(OC)c1O	> 21.3 µM (inactive)	4.26 µM (inactive)	2.75 µM (inactive)	1.47 µM (inactive)	–	16.3 µM (inactive)	2.48 µM (inactive)	> 50 µM (inactive)	> 38.8 µM (inactive)	> 50 µM (inactive)	0.113 µM (active)	6.38 µM (inactive)	28.6 µM (inactive)	20.7 µM (inactive)	0.384 µM (active)	7.96	6.12 µM (inactive)	0.196 µM (active)	0.208 µM (active)	9.48 µM (inactive)
CCOC(=O)C1C(c2ccc([N+](=O)[O-])cc2)NC(c2ccc([N+](=O)[O-])cc2)C(C(=O)OC)S1(=O)=O (centres undefined)	> 100 µM (inactive)	> 100 µM (inactive)	> 100 µM (inactive)	–	> 100 µM (inactive)	> 100 µM (inactive)	> 100 µM (inactive)	> 100 µM (inactive)	> 100 µM (inactive)	> 100 µM (inactive)	> 100 µM (inactive)	–	> 100 µM (inactive)	–	–	> 100	> 100 µM (inactive)	–	–	–
CCN1CCC(O)(/C=C/c2ccc(OC)cc2)C(C(=O)/C=C/c2ccc(OC)cc2)C1 (centres undefined)	12.5 µM (inactive)	12 µM (inactive)	12.4 µM (inactive)	13.7 µM (inactive)	–	13.6 µM (inactive)	15.1 µM (inactive)	13.3 µM (inactive)	12 µM (inactive)	17.1 µM (inactive)	11.1 µM (inactive)	9.48 µM (inactive)	11.1 µM (inactive)	5.02 µM (inactive)	3.08 µM (inactive)	> 10	2.37 µM (inactive)	13.3 µM (inactive)	6.05 µM (inactive)	15.5 µM (inactive)
O=C(CSc1nnc(-c2ccc(/N=C\c3ccc(Cl)cc3)cc2)o1)Nc1ccc(Cl)cc1	> 100 µM (inactive)	> 100 µM (inactive)	> 100 µM (inactive)	–	> 100 µM (inactive)	> 100 µM (inactive)	> 100 µM (inactive)	> 100 µM (inactive)	> 100 µM (inactive)	> 100 µM (inactive)	> 100 µM (inactive)	–	> 100 µM (inactive)	–	–	> 100	> 100 µM (inactive)	–	–	–
O=C1C(Cl)C2(CC(/C=C/c3ccccc3)=NN2c2cccc(S(=O)(=O)O)c2)N1c1nc2ccccc2s1 (centres undefined)	6.53 µM (inactive)	14 µM (inactive)	13.2 µM (inactive)	15.3 µM (inactive)	–	19.2 µM (inactive)	25.2 µM (inactive)	16.4 µM (inactive)	44.8 µM (inactive)	17.3 µM (inactive)	22.8 µM (inactive)	11.7 µM (inactive)	17.8 µM (inactive)	12.2 µM (inactive)	16.7 µM (inactive)	15.9	7.83 µM (inactive)	19.3 µM (inactive)	21.4 µM (inactive)	14.8 µM (inactive)
